Toxic doses and inconclusive results are not listed. The calls were made as follows: active = survival T/C of 150% or more; inactive = T/C below 125% in these data.
Test system: CD2F1 mice, L1210 leukemia ip, survival T/C
Assay: NCI In Vivo Anticancer Drug Screen. Data for tumor model L1210 Leukemia (intraperitoneal) in CD2F1 (CDF1) mice
Conditions: higher = longer survival
Outline: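 Activity against a transplanted murine tumor was judged by comparing the compound group with a vehicle group. The outcome in the treated animals was divided by that in the controls.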

[1] = endpoint: mean survival time, dose: 100.0 mg/kg/injection, schedule: Q01DX001 (ip), vehicle: saline with Tween-80
[2] = endpoint: mean survival time, dose: 200.0 mg/kg/injection, schedule: Q01DX001 (ip), vehicle: saline with Tween-80
[3] = endpoint: mean survival time, dose: 400.0 mg/kg/injection, schedule: Q01DX001 (ip), vehicle: saline with Tween-80

Measured: T/C

Cn1c(=O)c2c(ncn2-c2ccncc2)n(C)c1=O
inactive: endpoint: mean survival time, dose: 12.5 mg/kg/injection, schedule: Q01DX005 (ip), vehicle: saline with Tween-80 93 % of control | endpoint: mean survival time, dose: 25.0 mg/kg/injection, schedule: Q01DX005 (ip), vehicle: saline with Tween-80 98 % of control | endpoint: mean survival time, dose: 50.0 mg/kg/injection, schedule: Q01DX005 (ip), vehicle: saline with Tween-80 96 % of control | endpoint: mean survival time, dose: 100.0 mg/kg/injection, schedule: Q01DX005 (ip), vehicle: saline with Tween-80 104 % of control

CN(C)C(=O)Sc1ccc(S(=O)(=O)F)c(Cl)c1Cl
inactive: endpoint: mean survival time, dose: 100.0 mg/kg/injection, schedule: Q04DX002 (ip), vehicle: saline with Tween-80 100 % of control | endpoint: mean survival time, dose: 200.0 mg/kg/injection, schedule: Q04DX002 (ip), vehicle: saline with Tween-80 100 % of control | endpoint: mean survival time, dose: 400.0 mg/kg/injection, schedule: Q04DX002 (ip), vehicle: saline with Tween-80 103 % of control

CC1C(c2ccccc2)OC(N2CCOCC2)C(C)(C)CN1C (stereo unspecified)
inactive: endpoint: median survival time, dose: 50.0 mg/kg/injection, schedule: Q01DX009 (ip), vehicle: saline with Tween-80 100 % of control | endpoint: median survival time, dose: 100.0 mg/kg/injection, schedule: Q01DX009 (ip), vehicle: saline with Tween-80 102 % of control | endpoint: median survival time, dose: 200.0 mg/kg/injection, schedule: Q01DX009 (ip), vehicle: saline with Tween-80 102 % of control | endpoint: median survival time, dose: 400.0 mg/kg/injection, schedule: Q01DX009 (ip), vehicle: saline with Tween-80 97 % of control

c1ccc(C2Nc3ccccc3NC2c2ccccc2)cc1 (stereo unspecified)
inactive: [1] 95 % of control | [2] 97 % of control | [3] 103 % of control

COc1ccc2ccccc2c1
inactive: [1] 101 % of control | endpoint: mean survival time, dose: 100.0 mg/kg/injection, schedule: Q04DX003 (ip), vehicle: other 100 % of control | [2] 100 % of control | endpoint: mean survival time, dose: 200.0 mg/kg/injection, schedule: Q04DX003 (ip), vehicle: other 104 % of control | [3] 111 % of control

COc1ccc(CC(N)C(=O)NC2C(COP(=O)(O)OC3CC(n4cc(C)c(=O)[nH]c4=O)OC3CO)OC(n3cnc4c(N(C)C)ncnc43)C2O)cc1 (stereo unspecified)
inactive: endpoint: median survival time, dose: 5.63 mg/kg/injection, schedule: Q01DX005 (ip), vehicle: water 96 % of control | endpoint: median survival time, dose: 11.25 mg/kg/injection, schedule: Q01DX005 (ip), vehicle: water 96 % of control | endpoint: median survival time, dose: 21.9 mg/kg/injection, schedule: Q01DX005 (ip), vehicle: saline 109 % of control | endpoint: median survival time, dose: 22.5 mg/kg/injection, schedule: Q01DX005 (ip), vehicle: water 94 % of control | endpoint: median survival time, dose: 43.8 mg/kg/injection, schedule: Q01DX005 (ip), vehicle: saline 106 % of control | endpoint: median survival time, dose: 45.0 mg/kg/injection, schedule: Q01DX005 (ip), vehicle: water 100 % of control | endpoint: median survival time, dose: 87.5 mg/kg/injection, schedule: Q01DX005 (ip), vehicle: saline 108 % of control | endpoint: median survival time, dose: 90.0 mg/kg/injection, schedule: Q01DX005 (ip), vehicle: water 104 % of control | endpoint: median survival time, dose: 175.0 mg/kg/injection, schedule: Q01DX005 (ip), vehicle: saline 102 % of control

O=C(O)c1cn(C2OC(CO)C(O)C2O)c2nc[nH]c(=O)c12 (stereo unspecified)
inactive: endpoint: median survival time, dose: 8.63 mg/kg/injection, schedule: Q01DX005 (ip), vehicle: saline with Tween-80 103 % of control | endpoint: median survival time, dose: 17.25 mg/kg/injection, schedule: Q01DX005 (ip), vehicle: saline with Tween-80 101 % of control | endpoint: median survival time, dose: 34.5 mg/kg/injection, schedule: Q01DX005 (ip), vehicle: saline with Tween-80 108 % of control | endpoint: median survival time, dose: 69.0 mg/kg/injection, schedule: Q01DX005 (ip), vehicle: saline with Tween-80 104 % of control | endpoint: median survival time, dose: 138.0 mg/kg/injection, schedule: Q01DX005 (ip), vehicle: saline with Tween-80 110 % of control

O=C(c1cccnc1)c1cc2ccccc2n1S(=O)(=O)c1ccccc1
inactive: [1] 97 % of control | [2] 97 % of control | [3] 97 % of control

Reference: PubChem BioAssay AID256 (DTP/NCI, 2004)
